Our source for the IC50 values is patent publication US20240034736A1, “HSD17B13 INHIBITORS AND USES THEREOF” (FL2022-001, Inc., priority 2020, published 2024).

Each structure is given as a SMILES string. pIC50: −log10 of the molar value. Bounds are passed on as bounds.

Sequence of Recombinant human HSD17B13 enzyme (Q7Z5P4 20-300): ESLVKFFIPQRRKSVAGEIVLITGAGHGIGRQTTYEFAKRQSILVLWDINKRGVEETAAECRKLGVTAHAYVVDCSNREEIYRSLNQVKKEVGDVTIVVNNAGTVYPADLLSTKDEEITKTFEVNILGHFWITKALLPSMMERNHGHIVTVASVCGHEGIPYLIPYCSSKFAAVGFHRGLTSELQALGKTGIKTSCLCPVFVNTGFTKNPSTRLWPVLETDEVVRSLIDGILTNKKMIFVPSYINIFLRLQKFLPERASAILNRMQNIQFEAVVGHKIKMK

The target of the assay is Recombinant human HSD17B13 enzyme (Homo sapiens (Human), UniProt Q7Z5P4). Description: HSD17b13 NAD(P)H-Glo Biochemical Assay. The following applies: 50 uM estradiol, 1 mM NAD+; read-out: HSD17β13 IC50. In outline:
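Recombinant human HSD17B13 was pre-incubated with inhibitor for 20 min at RT in 20 mM Tris pH 7.4 with 0.002% Tween-20 and 0.02% BSA. Reaction then ran with 50 uM estradiol and 1 mM NAD+ (final) for 3 h at 37° C. NADH formed was detected by NAD(P)H-Glo luminescence after 1 h at RT.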
By pIC50 is commonly meant the negative decadic logarithm of the IC50, by convention in mol/L. `CN(c1ccc2c(cnn2-c2cc(C(F)(F)F)c(F)c(O)c2F)c1)C1CCOCC1` [Compound 19.70, 2,6-Difluoro-3-(5-(methyl(tetrahydro-2H-pyran-4-yl)amino)-1H-indazol-1-yl)-5-(trifluoromethyl)phenol]: the pIC50 was > 7.00.

For `CN(c1ccc2c(c1)c(C(F)(F)F)nn2-c1cc(C(F)(F)F)c(F)c(O)c1F)C1CCOCC1` [Compound 19.71, 2,6-Difluoro-3-(5-(methyl(tetrahydro-2H-pyran-4-yl)amino)-3-(trifluoromethyl)-1H-indazol-1-yl)-5-(trifluoromethyl)phenol], the pIC50 was 6.00 to 7.00.

As for `COc1nn(-c2cc(C(F)(F)F)c(F)c(O)c2F)c2ccc(N(C)C3CCOCC3)cc12` [Compound 19.72, 2,6-Difluoro-3-(3-methoxy-5-(methyl(tetrahydro-2H-pyran-4-yl)amino)-1H-indazol-1-yl)-5-(trifluoromethyl)phenol], the negative-log IC50 (pIC50) is 6.00 to 7.00.

Consider `CCc1nn(-c2cc(C(F)(F)F)c(F)c(O)c2F)c2ccc(N(C)C3CCOCC3)cc12` [Compound 19.73, 3-(3-Ethyl-5-(methyl(tetrahydro-2H-pyran-4-yl)amino)-1H-indazol-1-yl)-2,6-difluoro-5-(trifluoromethyl)phenol], for which the pIC50 is 6.00 to 7.00. Take `CC(C)c1nn(-c2cc(C(F)(F)F)c(F)c(O)c2F)c2ccc(N(C)C3CCOCC3)cc12` [Compound 19.74, 2,6-Difluoro-3-(3-isopropyl-5-(methyl(tetrahydro-2H-pyran-4-yl)amino)-1H-indazol-1-yl)-5-(trifluoromethyl)phenol]: the pIC50 is 6.00 to 7.00. Regarding `CN(c1ccc2c(c1)c(C1CC1)nn2-c1cc(C(F)(F)F)c(F)c(O)c1F)C1CCOCC1` [Compound 19.75, 3-(3-Cyclopropyl-5-(methyl(tetrahydro-2H-pyran-4-yl)amino)-1H-indazol-1-yl)-2,6-difluoro-5-(trifluoromethyl)phenol], the pIC50 is 6.00 to 7.00.

Turning to `CN(C)c1nn(-c2cc(C(F)(F)F)c(F)c(O)c2F)c2ccc(N(C)C3CCOCC3)cc12` [Compound 19.76, 3-(3-(Dimethylamino)-5-(methyl(tetrahydro-2H-pyran-4-yl)amino)-1H-indazol-1-yl)-2,6-difluoro-5-(trifluoromethyl)phenol], the pIC50 was 6.00 to 7.00.

For the compound `COC1CCN(c2ncc3c(n2)c(C)nn3-c2cc(C(F)(F)F)c(F)c(O)c2F)CC1` [Compound 19.77, 2,6-Difluoro-3-(5-(4-methoxypiperidin-1-yl)-3-methyl-1H-pyrazolo[4,3-d]pyrimidin-1-yl)-5-(trifluoromethyl)phenol], the pIC50 is > 7.00. Next, `Cc1nn(-c2cc(C(F)(F)F)c(F)c(O)c2F)c2cnc(N(C)C3CCOCC3)nc12` [Compound 19.78, 2,6-Difluoro-3-(3-methyl-5-(methyl(tetrahydro-2H-pyran-4-yl)amino)-1H-pyrazolo[4,3-d]pyrimidin-1-yl)-5-(trifluoromethyl)phenol]: > 7.00; `Cc1nn(-c2cc(C(F)(F)F)c(F)c(O)c2F)c2cnc(N3CC(C)(C)OC(C)(C)C3)nc12` [Compound 19.79, 2,6-Difluoro-3-(3-methyl-5-(2,2,6,6-tetramethylmorpholino)-1H-pyrazolo[4,3-d]pyrimidin-1-yl)-5-(trifluoromethyl)phenol]: > 7.00; `Oc1c(F)c(-n2ncc3nc(N4CCOCC45CC5)ncc32)cc(C(F)(F)F)c1F` [Compound 19.80, 3-(5-(7-Oxa-4-azaspiro[2.5]octan-4-yl)-1H-pyrazolo[4,3-d]pyrimidin-1-yl)-2,6-difluoro-5-(trifluoromethyl)phenol]: 6.00 to 7.00.

Take `Cc1nn(-c2cc(C(F)(F)F)c(F)c(O)c2F)c2cnc(N3CCOC4(CC4)C3)nc12` [Compound 19.81, 2,6-Difluoro-3-(3-methyl-5-(4-oxa-7-azaspiro[2.5]octan-7-yl)-1H-pyrazolo[4,3-d]pyrimidin-1-yl)-5-(trifluoromethyl)phenol]: the negative-log IC50 (pIC50) is > 7.00. `Cc1nn(-c2cc(C(F)(F)F)c(F)c(O)c2F)c2cnc(N3CCOC4(CCC4)C3)nc12` [Compound 19.82, 2,6-Difluoro-3-(3-methyl-5-(5-oxa-8-azaspiro[3.5]nonan-8-yl)-1H-pyrazolo[4,3-d]pyrimidin-1-yl)-5-(trifluoromethyl)phenol]: the negative logarithm of the IC50 (pIC50) was > 7.00. As for `Cc1nn(-c2cc(C(F)(F)F)c(F)c(O)c2F)c2cnc(N3CCN(S(=O)(=O)c4ccccc4)CC34CC4)cc12` [Compound 19.83, 2,6-Difluoro-3-(3-methyl-5-(7-(phenylsulfonyl)-4,7-diazaspiro[2.5]octan-4-yl)-1H-pyrazolo[3,4-c]pyridin-1-yl)-5-(trifluoromethyl)phenol], the figure is > 7.00; as for `Cc1nn(-c2cc(C(F)(F)F)c(F)c(O)c2F)c2cnc(N3CCN(S(=O)(=O)c4cnn(C)c4)CC34CC4)cc12` [Compound 19.84, 2,6-Difluoro-3-(3-methyl-5-(7-((1-methyl-1H-pyrazol-4-yl)sulfonyl)-4,7-diazaspiro[2.5]octan-4-yl)-1H-pyrazolo[3,4-c]pyridin-1-yl)-5-(trifluoromethyl)phenol], > 7.00. Take `Cc1nn(-c2cc(O)c(F)c(C(F)(F)F)c2)c2cnc(N3CCOCC34CC4)cc12` [Compound 19.85, 2-Fluoro-5-(3-methyl-5-(7-oxa-4-azaspiro[2.5]octan-4-yl)-1H-pyrazolo[3,4-c]pyridin-1-yl)-3-(trifluoromethyl)phenol]: the negative logarithm of the IC50 (pIC50) is > 7.00. As for `CC(=O)c1cc(-n2nc(C)c3cc(N4CCOCC45CC5)ncc32)cc(O)c1F` [Compound 19.86, 1-(2-Fluoro-3-hydroxy-5-(3-methyl-5-(7-oxa-4-azaspiro[2.5]octan-4-yl)-1H-pyrazolo[3,4-c]pyridin-1-yl)phenyl)ethanone], the figure is 6.00 to 7.00. In the case of `CN(c1ccc2c(c1)c(Cl)nn2-c1cc(C(F)(F)F)c(F)c(O)c1F)C1CCOCC1` [Compound 19.87, 3-(3-Chloro-5-(methyl(tetrahydro-2H-pyran-4-yl)amino)-1H-indazol-1-yl)-2,6-difluoro-5-(trifluoromethyl)phenol], the negative-log IC50 (pIC50) was 6.00 to 7.00. On to `COC(=O)c1nn(-c2cc(C(F)(F)F)c(F)c(O)c2F)c2ccc(N(C)C3CCOCC3)cc12` [Compound 19.88, Methyl 1-(2,4-difluoro-3-hydroxy-5-(trifluoromethyl)phenyl)-5-(methyl(tetrahydro-2H-pyran-4-yl)amino)-1H-indazole-3-carboxylate], for which the negative-log IC50 (pIC50) was 6.00 to 7.00. With `CN(c1ccc2c(c1)c(C(=O)O)nn2-c1cc(C(F)(F)F)c(F)c(O)c1F)C1CCOCC1` [Compound 19.89, 1-(2,4-Difluoro-3-hydroxy-5-(trifluoromethyl)phenyl)-5-(methyl(tetrahydro-2H-pyran-4-yl)amino)-1H-indazole-3-carboxylic Acid], the negative logarithm of the IC50 (pIC50) is 4.52 to 6.00. Next, `CN(c1ccc2c(c1)c(C#N)nn2-c1cc(C(F)(F)F)c(F)c(O)c1F)C1CCOCC1` [Compound 19.90, 1-(2,4-Difluoro-3-hydroxy-5-(trifluoromethyl)phenyl)-5-(methyl(tetrahydro-2H-pyran-4-yl)amino)-1H-indazole-3-carbonitrile]: 6.00 to 7.00; `CNc1c(-n2nc(Cl)c3cc(N(C)C4CCOCC4)ccc32)cc(C(F)(F)F)c(F)c1O` [Compound 19.91, 3-(3-Chloro-5-(methyl(tetrahydro-2H-pyran-4-yl)amino)-1H-indazol-1-yl)-6-fluoro-2-(methylamino)-5-(trifluoromethyl)phenol]: 6.00 to 7.00. Next, `Cc1nn(-c2cc(O)c(F)c(NC(=O)C(F)(F)F)c2)c2cnc(N3CCOCC34CC4)cc12` [Compound 19.92, 2,2,2-Trifluoro-N-(2-fluoro-3-hydroxy-5-(3-methyl-5-(7-oxa-4-azaspiro[2.5]octan-4-yl)-1H-pyrazolo[3,4-c]pyridin-1-yl)phenyl)acetamide]: 4.52 to 6.00.

With `CN(c1ccc2c(c1)c(N)nn2-c1cc(C(F)(F)F)c(F)c(O)c1F)C1CCOCC1` [Compound 19.93, 3-(3-Amino-5-(methyl(tetrahydro-2H-pyran-4-yl)amino)-1H-indazol-1-yl)-2,6-difluoro-5-(trifluoromethyl)phenol], the pIC50 was 6.00 to 7.00. As for `Cc1nn(-c2cc(C(F)(F)F)c(F)c(O)c2F)c2ccc(N3CCOCC34CC4)cc12` [Compound 19.94, 2,6-Difluoro-3-(3-methyl-5-(7-oxa-4-azaspiro[2.5]octan-4-yl)-1H-indazol-1-yl)-5-(trifluoromethyl)phenol], the figure is > 7.00; as for `Cc1nn(-c2cc(C(F)(F)F)c(F)c(O)c2F)c2cnc(N3CCOCC34CC4)nc12` [Compound 19.95, 2,6-Difluoro-3-(3-methyl-5-(7-oxa-4-azaspiro[2.5]octan-4-yl)-1H-pyrazolo[4,3-d]pyrimidin-1-yl)-5-(trifluoromethyl)phenol], 6.00 to 7.00.

Take `Cc1nn(-c2cc(O)c(F)c(C(N)=O)c2)c2cnc(N3CCOCC34CC4)cc12` [Compound 19.96, 2-Fluoro-3-hydroxy-5-(3-methyl-5-(7-oxa-4-azaspiro[2.5]octan-4-yl)-1H-pyrazolo[3,4-c]pyridin-1-yl)benzamide]: the pIC50 was 4.52 to 6.00. As for `Cc1nn(-c2cc(O)c(F)c(C(C)O)c2)c2cnc(N3CCOCC34CC4)cc12` (stereo not drawn) [Compound 19.97, 2-Fluoro-3-(1-hydroxyethyl)-5-(3-methyl-5-(7-oxa-4-azaspiro[2.5]octan-4-yl)-1H-pyrazolo[3,4-c]pyridin-1-yl)phenol], the figure is 4.52 to 6.00; as for `Cc1nn(-c2cc(O)c(F)c(C(C)(F)F)c2)c2cnc(N3CCOCC34CC4)cc12` [Compound 19.98, 3-(1,1-Difluoroethyl)-2-fluoro-5-(3-methyl-5-(7-oxa-4-azaspiro[2.5]octan-4-yl)-1H-pyrazolo[3,4-c]pyridin-1-yl)phenol], 6.00 to 7.00. As for `Cc1nn(-c2cc(O)c(F)c(C(=O)N(C)C)c2)c2cnc(N3CCOCC34CC4)cc12` [Compound 19.99, 2-Fluoro-3-hydroxy-N,N-dimethyl-5-(3-methyl-5-(7-oxa-4-azaspiro[2.5]octan-4-yl)-1H-pyrazolo[3,4-c]pyridin-1-yl)benzamide], the figure is 6.00 to 7.00.
